Values of other authors, collected in paper PMC9811530 (Experimental and Clinical Endocrinology & Diabetes, 2022).
Where two headings read alike, the source gives them in different places.

Tests used:
11beta-HSD1 in the liver = 11beta-HSD1 in the liver (Homo sapiens, UniProt P28845); conditions: cited from earlier work
11beta-HSD1 in AT = conditions: single dose, 24 h after dosing; cited from earlier work

11beta-HSD1 in the liver, sequence (P28845 whole entry): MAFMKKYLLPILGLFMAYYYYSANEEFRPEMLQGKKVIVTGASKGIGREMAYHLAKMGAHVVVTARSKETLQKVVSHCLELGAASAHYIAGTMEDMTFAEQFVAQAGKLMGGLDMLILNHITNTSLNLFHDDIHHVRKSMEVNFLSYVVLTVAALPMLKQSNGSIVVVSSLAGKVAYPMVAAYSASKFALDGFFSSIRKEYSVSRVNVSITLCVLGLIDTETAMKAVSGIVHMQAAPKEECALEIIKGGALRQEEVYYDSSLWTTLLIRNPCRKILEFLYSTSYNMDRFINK

## N#Cc1ccc(-c2ccc(S(=O)(=O)Nc3cccc(N)n3)cc2)cc1 [PF-915275]
11beta-HSD1 in the liver; after 14 days of treatment
  maximum decrease of the (aTHF+THF)/THE ratio: 26%

## CC(C)[C@]1(C)SC(=N[C@H]2C[C@@H]3CC[C@H]2C3)NC1=O [AMG 221]
11beta-HSD1 in AT
  11beta-HSD1 inhibition in AT: > 90%

## CCCSc1nc(N2CCC[C@@H](CC(=O)O)C2)ccc1C(=O)NC1CCCCC1 [AZD4017]
11beta-HSD1 in the liver; after 9 days
  maximum decrease of the (aTHF+THF)/THE ratio: 92%

## C[C@@H](c1ccc(-c2ccn(C)c(=O)c2)cc1)N1CC[C@](CC(C)(C)O)(c2ccccc2)OC1=O [BI 135585]
11beta-HSD1 in AT
  inhibition of 11beta-HSD1 in AT: 90%
